Entries after “also recorded” stand apart in the source; their conditions may differ. Marks after values point to notes of the source that are not given here.
Test system: dairy cows having a high milk performance (German Holstein cattle)
Assay: Feeding study of trans-hex-2-enal and hexanal on feed intake, feed intake behavior, milk performance and milk composition of dairy cows
Assay type: in vivo
Details: for FMI (fresh matter intake): 4.3 g/cow/day in TMR via wheat bran premix, control 43.6; for FMI (fresh matter intake) / Milk protein yield / Milk fat yield / DMI (% of BW) / Milk protein / Milk fat / DMI / ECM (energy-corrected milk) / Milk yield / Eating period / Frequency of visits: LSQ means; for FMI (fresh matter intake) / DMI / Eating period: p < 0.05; for Milk protein yield / Milk fat yield / DMI (% of BW) / Milk protein / Milk fat / DMI / ECM (energy-corrected milk) / Milk yield / Eating period / Frequency of visits: 4.3 g/cow/day in TMR; for Milk protein yield: control 1.04; for Milk fat yield: control 1.16; for DMI (% of BW): control 3.3; for Milk protein: control 3.36; for Milk fat: control 3.69; for DMI: control 22.2; for ECM (energy-corrected milk): control 30.2; for Milk yield: control 31.6; for Eating period: control 184; for Frequency of visits: visits to feed trough per day, control 33.1, p < 0.0001; for dry matter intake (DMI) compared with the control group, in words: A vs control p<0.067, B vs control p<0.0234; for visits to the feed trough: control 33.1 visits per day; for fresh matter intake (FMI) compared with the control group, in words: p<0.0001; for more frequent visits to the feed trough than the control group: per day, versus control group
Description: The purpose of the present study is to establish whether 4.3 g/cow/day of trans-hex-2-enal or 4.3 g/cow/day of hexanal affect the DMI value, the milk performance, the milk composition or the feed intake behavior (duration, frequency, etc.) of dairy cows.
The start of the study was calendar week 18 of the experimental year and the end of the study was calendar week 24 of the same year. The feed consumption was determined by means of feed troughs with electronic weight determination, produced by Insentec B.V. (Marknesse, Netherlands). The system identifies each animal by scanning the respective transponder on the neck band of the respective cow using a light barrier. After identification, the animal is allowed free access to the feed trough and the amount of feed taken in on each visit to the trough is recorded automatically.
The system thus determines all visits of each cow to the feed trough, the respective feed intake and the duration of the respective visit. The feed troughs were filled once a day at about 06.30 hours in the morning with an amount of about 70 kg of feed, after the residual feed of the previous day had been removed. During the morning milking, the feed troughs were closed for cleaning for a period of 20 to 30 minutes.
The milk yield was determined individually during each milking process and recorded by the Herd Management Software DairyPlan C21 (GEA Farm Technologies, Boenen, Germany). The cows were milked twice daily at 05.00 hours in the morning and 15.30 hours in the afternoon. Fresh water was freely available at all times.
Every Monday, after each milking, milk samples were taken and, for each cow, the milk composition (fat, protein, somatic cell count) was determined. The energy-corrected milk value (ECM) was determined according to the following equation: […]
All of the cows received a total mixed ration (TMR) (table 2) having a calculated mean daily feed intake of 22 kg of dry matter (DM). Trans-hex-2-enal and hexanal were added to the TMR and thus fed by a premix with wheat bran (trans-hex-2-enal/wheat bran for group A and hexanal/wheat bran for group B).
Samples of the TMR were withdrawn daily from each of the rations, combined to form a weekly sample and frozen until determination of the DM content of the TMRs. Samples of all feed components were taken every 14 days, frozen and pooled over the entire feeding trial up until laboratory analysis.
A standard model for statistical analysis using all parameters was adapted to the weekly data. This is a general, linear, mixed model with the cow as a chance effect and containing the following co-variables:
For the treatment effect, an “overall” P value was presented, and also a P value for the differences between the groups, which were tested both adapted and also non-adapted by means of the Tukey test.

Row | Structure (SMILES) | daily milk production and milk composition compared with the control group, in words (4.3 g/cow/day) | FMI (fresh matter intake) | Milk protein yield | Milk fat yield | DMI (% of BW) | Milk protein | Milk fat | DMI | ECM (energy-corrected milk) | Milk yield | Eating period | Frequency of visits | dry matter intake (DMI) compared with the control group, in words (4.3 g/cow/day) | visits to the feed trough (4.3 g/cow/day) | fresh matter intake (FMI) compared with the control group, in words (4.3 g/cow/day) | more frequent visits to the feed trough than the control group (4.3 g/cow/day) | daily FMI value, mean (4.3 g/cow/day)
1 | CCC/C=C/C=O [Trans-hex-2-enal] | no differences | 47.8^b kg/d | 1.06 kg/day | 1.19 kg/day | 3.6 % of BW | 3.26% | 3.66% | 23.5^ab kg/d | 31.1 kg/day | 33.1 kg/day | 206^ab min | 48.6^b | significant advantage | 48.6 times per day | higher; also recorded: significantly increased | 47% | 
2 | CCCCCC=O [Hexanal, hexanal] | no differences | 48.3^b kg/d | 1.06 kg/day | 1.22 kg/day | 3.7 % of BW | 3.28% | 3.77% | 23.8^b kg/d | 31.3 kg/day | 32.7 kg/day | 212^b min | 45.2^b | significant advantage | 45.2 times per day | higher; also recorded: significantly increased | 37% | 48.3 kg FMI per day
